The subject of test [1] is beet armyworm (BAW; Spodoptera exigua: Lepidoptera). Briefly: 96-well microtiter plate-based high throughput (HTS) diet bioassay on beet armyworm (BAW HTS). It is filed as in vivo. Conditions: BAW eggs, 12 μg test compound per well, mortality at 6 d post-treatment, mortality class. In a few lines: (§1)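 Two diet-incorporation-style surface tests were run. Eggs infested treated diet (12 μg/well) in plates incubated dark at 29° C, with mortality taken on day 6 from six replicates. Separately, second-instar larvae fed on treated diet (50 μg/cm^2) at 25° C, 14:10 L:D, with six-day mortality averaged over eight wells.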

For test [2] the test system is unchanged. Briefly: 128-well diet tray assay on beet armyworm (BAW 50). It is filed as in vivo. Conditions: 128-well diet tray assay, second instar BAW larvae, mortality class; for BAW 50 ug/cm2: 50 μg/cm^2 of test compound on diet. Summed up:
as §1

Where [3] appears, read: 96-well microtiter plate HTS diet assay.

SMILES strings stand for the structures.

18 compounds from patent US8178658B2 (Dow AgroSciences, LLC, priority 2008, dated 2012) can be followed below.

For `COC1C(C)OC(ON=Cc2ccc(-c3ncn(-c4ccc(OC(F)(F)F)cc4)n3)cc2)C(OC)C1OC` (stereo not shown) [Compound 82], the “BAW HTS” value in test [1] (96-well HTS diet bioassay) was “B (either (1) the compound was tested and less than 50 percent mortality was observed or (2) the compound was not tested)”; in test [1] (setting [3]), “B (either (1) the compound was tested and less than 50 percent mortality was observed or (2) the compound was not tested)”. In test [2], the “BAW 50 ug/cm2” value is “A (the compound was tested and at least 50 percent mortality was observed)”.
With `COC1C(C)OC(ON=Cc2ccc(-c3ncn(-c4ccc(C(C)C)cc4)n3)cc2)C(OC)C1OC` (stereo not shown) [Compound 83], the “BAW HTS” value in test [1] (96-well HTS diet bioassay) was “B (either (1) the compound was tested and less than 50 percent mortality was observed or (2) the compound was not tested)”; in test [1] (setting [3]), “B (either (1) the compound was tested and less than 50 percent mortality was observed or (2) the compound was not tested)”. Also, in test [2], the “BAW 50 ug/cm2” value is “A (the compound was tested and at least 50 percent mortality was observed)”.
In the case of `COC1C(C)OC(ON=Cc2ccc(-c3ncn(-c4ccc(Cl)cc4)n3)cc2)C(OC)C1OC` (stereo not shown) [Compound 84], the “BAW HTS” value in test [1] (96-well HTS diet bioassay) is “B (either (1) the compound was tested and less than 50 percent mortality was observed or (2) the compound was not tested)”; in test [1] (setting [3]), “B (either (1) the compound was tested and less than 50 percent mortality was observed or (2) the compound was not tested)”. For the same compound, in test [2], the “BAW 50 ug/cm2” value was “A (the compound was tested and at least 50 percent mortality was observed)”.
For `COc1ccc(-n2cnc(-c3ccc(C=NOC4OC(C)C(OC)C(OC)C4OC)cc3)n2)cc1` (stereo not shown) [Compound 85], the “BAW HTS” value in test [1] (96-well HTS diet bioassay) was “B (either (1) the compound was tested and less than 50 percent mortality was observed or (2) the compound was not tested)”; in test [1] (setting [3]) it was “B (either (1) the compound was tested and less than 50 percent mortality was observed or (2) the compound was not tested)”. Further, in test [2], the “BAW 50 ug/cm2” value was “A (the compound was tested and at least 50 percent mortality was observed)”.
For the compound `COC1C(C)OC(ON=Cc2ccc(-c3ncn(-c4ccc(C(C)(C)C)cc4)n3)cc2)C(OC)C1OC` (stereo not shown) [Compound 86], the “BAW HTS” value is “B (either (1) the compound was tested and less than 50 percent mortality was observed or (2) the compound was not tested)” in test [1] (96-well HTS diet bioassay); “B (either (1) the compound was tested and less than 50 percent mortality was observed or (2) the compound was not tested)” in test [1] (setting [3]). The “BAW 50 ug/cm2” value in test [2] is “A (the compound was tested and at least 50 percent mortality was observed)”.
Turning to `COC1C(C)OC(ON=Cc2ccc(-c3ncn(-c4ccc(SC(F)(F)F)cc4)n3)cc2)C(OC)C1OC` (stereo not shown) [Compound 87], the “BAW HTS” value in test [1] (96-well HTS diet bioassay) is “B (either (1) the compound was tested and less than 50 percent mortality was observed or (2) the compound was not tested)”; in test [1] (setting [3]) it was “B (either (1) the compound was tested and less than 50 percent mortality was observed or (2) the compound was not tested)”. Also, the “BAW 50 ug/cm2” value in test [2] is “A (the compound was tested and at least 50 percent mortality was observed)”.
Consider `COC1C(C)OC(ON=Cc2ccc(-c3ncn(-c4ccc(OC(F)(F)C(F)F)cc4)n3)cc2)C(OC)C1OC` (stereo not shown) [Compound 88], for which the “BAW HTS” value in test [1] (96-well HTS diet bioassay) is “B (either (1) the compound was tested and less than 50 percent mortality was observed or (2) the compound was not tested)”; in test [1] (setting [3]), “B (either (1) the compound was tested and less than 50 percent mortality was observed or (2) the compound was not tested)”. In test [2], the “BAW 50 ug/cm2” value was “A (the compound was tested and at least 50 percent mortality was observed)”.
`COC1C(C)OC(ON=Cc2ccc(-c3ncn(-c4ccc(OC(F)(F)C(F)(F)F)cc4)n3)cc2)C(OC)C1OC` (stereo not shown) [Compound 89]: the “BAW HTS” value is “B (either (1) the compound was tested and less than 50 percent mortality was observed or (2) the compound was not tested)” in test [1] (96-well HTS diet bioassay); “B (either (1) the compound was tested and less than 50 percent mortality was observed or (2) the compound was not tested)” in test [1] (setting [3]). Further, in test [2], the “BAW 50 ug/cm2” value was “A (the compound was tested and at least 50 percent mortality was observed)”.
Consider `COC1C(C)OC(ON=Cc2ccc(-c3ncn(-c4ccc(SC)cc4)n3)cc2)C(OC)C1OC` (stereo not shown) [Compound 90], for which the “BAW HTS” value in test [1] (96-well HTS diet bioassay) is “B (either (1) the compound was tested and less than 50 percent mortality was observed or (2) the compound was not tested)”; in test [1] (setting [3]) it was “B (either (1) the compound was tested and less than 50 percent mortality was observed or (2) the compound was not tested)”. Also, the “BAW 50 ug/cm2” value in test [2] was “A (the compound was tested and at least 50 percent mortality was observed)”.
Take `COC1C(C)OC(ON=Cc2ccc(-c3ncn(-c4cccc(OC(F)(F)F)c4)n3)cc2)C(OC)C1OC` (stereo not shown) [Compound 91]: the “BAW HTS” value in test [1] (96-well HTS diet bioassay) was “B (either (1) the compound was tested and less than 50 percent mortality was observed or (2) the compound was not tested)”; in test [1] (setting [3]), “B (either (1) the compound was tested and less than 50 percent mortality was observed or (2) the compound was not tested)”. The “BAW 50 ug/cm2” value in test [2] is “A (the compound was tested and at least 50 percent mortality was observed)”.
On to `CCOC1C(C)OC(ON=Cc2ccc(-c3ncn(-c4ccc(OC(F)(F)C(F)(F)F)cc4)n3)cc2)C(OCC)C1OCC` (stereo not shown) [Compound 92], for which the “BAW HTS” value is “B (either (1) the compound was tested and less than 50 percent mortality was observed or (2) the compound was not tested)” in test [1] (96-well HTS diet bioassay); “B (either (1) the compound was tested and less than 50 percent mortality was observed or (2) the compound was not tested)” in test [1] (setting [3]). Besides, the “BAW 50 ug/cm2” value in test [2] is “A (the compound was tested and at least 50 percent mortality was observed)”.
In the case of `CCOC1C(OC)C(C)OC(ON=Cc2ccc(-c3ncn(-c4ccc(OC(F)(F)C(F)(F)F)cc4)n3)cc2)C1OC` (stereo not shown) [Compound 93], the “BAW HTS” value in test [1] (96-well HTS diet bioassay) was “A (the compound was tested and at least 50 percent mortality was observed)”; in test [1] (setting [3]) it was “A (the compound was tested and at least 50 percent mortality was observed)”. Besides, in test [2], the “BAW 50 ug/cm2” value was “A (the compound was tested and at least 50 percent mortality was observed)”.
Take `CO[C@@H]1[C@@H](OC)[C@H](C)O[C@@H](O/N=C/c2ccc(-c3ncn(-c4ccc(OC(F)(F)C(F)C(F)(F)F)cn4)n3)cc2)[C@@H]1OC` (stereo partly drawn) [Compound 94, 4-{1-[5-(1,1,2,3,3,3-hexafluoropropoxy)-pyridinyl]-1H-[1,2,4]triazol-3-yl}-benzaldehyde O-((2S,3R,4R,5S,6S)-3,4,5-trimethoxy-6-methyl-tetrahydropyran-2-yl)-oxime]: the “BAW HTS” value in test [1] (setting [3]) is “B (either (1) the compound was tested and less than 50 percent mortality was observed or (2) the compound was not tested)”. Also, the pest or weed control at 12 µg/well, 12 µg/well in test [1] (Spodoptera exigua, 144 h, 96-well HTS diet bioassay, read-out: BAW HTS) is under 50%. In test [2], the “BAW 50 ug/cm2” value was “A (the compound was tested and at least 50 percent mortality was observed)”. For the same compound, the pest or weed control at 50 µg/cm2, 50 µg/cm2 in test [2] (Spodoptera exigua, 144 h, 50 μg/cm2 of test compound on diet, read-out: BAW 50 ug/cm2) was over 50%.
For `COC1C(C)OC(ON=Cc2ccc(-c3nc(-c4ccc(C(F)(F)F)cc4)n[nH]3)cc2)C(OC)C1OC` (stereo not shown) [Compound 95], the “BAW HTS” value in test [1] (96-well HTS diet bioassay) was “B (either (1) the compound was tested and less than 50 percent mortality was observed or (2) the compound was not tested)”; in test [1] (setting [3]), “B (either (1) the compound was tested and less than 50 percent mortality was observed or (2) the compound was not tested)”. The “BAW 50 ug/cm2” value in test [2] is “A (the compound was tested and at least 50 percent mortality was observed)”.
On to `COC1C(C)OC(ON=Cc2ccc(-c3nc(-c4ccc(Cl)cc4)n[nH]3)cc2)C(OC)C1OC` (stereo not shown) [Compound 96], for which the “BAW HTS” value in test [1] (96-well HTS diet bioassay) is “B (either (1) the compound was tested and less than 50 percent mortality was observed or (2) the compound was not tested)”; in test [1] (setting [3]), “B (either (1) the compound was tested and less than 50 percent mortality was observed or (2) the compound was not tested)”. Moreover, in test [2], the “BAW 50 ug/cm2” value was “A (the compound was tested and at least 50 percent mortality was observed)”.
Take `COC1C(C)OC(ON=Cc2ccc(-c3nc(-c4ccc(C(C)(C)C)cc4)n[nH]3)cc2)C(OC)C1OC` (stereo not shown) [Compound 97]: the “BAW HTS” value in test [1] (96-well HTS diet bioassay) is “B (either (1) the compound was tested and less than 50 percent mortality was observed or (2) the compound was not tested)”; in test [1] (setting [3]), “B (either (1) the compound was tested and less than 50 percent mortality was observed or (2) the compound was not tested)”. Further, the “BAW 50 ug/cm2” value in test [2] was “A (the compound was tested and at least 50 percent mortality was observed)”.
With `COC1C(C)OC(ON=Cc2ccc(-c3nn(-c4ccc(Cl)c(Cl)c4)c(=O)[nH]3)cc2)C(OC)C1OC` (stereo not shown) [Compound 98], the “BAW HTS” value in test [1] (96-well HTS diet bioassay) was “B (either (1) the compound was tested and less than 50 percent mortality was observed or (2) the compound was not tested)”; in test [1] (setting [3]), “B (either (1) the compound was tested and less than 50 percent mortality was observed or (2) the compound was not tested)”. In addition, the “BAW 50 ug/cm2” value in test [2] is “A (the compound was tested and at least 50 percent mortality was observed)”.
For `COC1C(C)OC(ON=Cc2ccc(-c3nn(-c4c(F)c(F)c(C(F)(F)F)c(F)c4F)c(=O)[nH]3)cc2)C(OC)C1OC` (stereo not shown) [Compound 99], the “BAW HTS” value is “B (either (1) the compound was tested and less than 50 percent mortality was observed or (2) the compound was not tested)” in test [1] (96-well HTS diet bioassay); “B (either (1) the compound was tested and less than 50 percent mortality was observed or (2) the compound was not tested)” in test [1] (setting [3]). The “BAW 50 ug/cm2” value in test [2] was “A (the compound was tested and at least 50 percent mortality was observed)”.
